Reference: patent publication US9365522B2, “Pyrazole amide derivative” (AMGEN INC., priority 2015, dated 2016)

Target: T1, ligand binding domain of human ROR gamma (Homo sapiens, UniProt P51449)
T1 construct: NM_001001523; expressed in transfected cells; host or cells: HEK293T
T1 sequence (P51449 247-497 isoform P51449-2): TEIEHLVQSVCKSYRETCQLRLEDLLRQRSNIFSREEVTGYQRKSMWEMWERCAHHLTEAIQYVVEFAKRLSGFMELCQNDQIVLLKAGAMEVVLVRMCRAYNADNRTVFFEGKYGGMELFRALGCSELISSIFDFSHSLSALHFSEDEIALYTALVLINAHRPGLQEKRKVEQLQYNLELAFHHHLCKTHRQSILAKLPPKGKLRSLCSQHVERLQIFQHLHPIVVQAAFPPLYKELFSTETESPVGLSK
Test: ROR gamma reporter gene assay (GAL4-RORγ LBD luciferase, Dual-Glo)
Assay type: cell-based
Details: HEK293T cells transfected with pM-ROR gamma, 8 concentrations 3.5 nM to 10.5 μM, 24 h incubation; read-out: result (pIC50, inhibition of RORγ transcriptional activity) (converted)
Procedure: Luciferase reporter gene assay was used to assess inhibition of RORγ transcriptional activity.
ROR gamma expression vector was prepared by inserting the ligand binding domain of human ROR gamma (amino acid 247-497 of Genbank Accession NO. NM_001001523) adjacent to the yeast GAL4 transcription factor DNA binding domain in the expression vector pM (Clontech). The resulting expression vector pM-ROR gamma was used in transfection experiments together with the pGL4 luciferase reporter plasmid (Promega) containing five copies of the UAS GAL4 recognition site and pRL-CMV plasmids (Promega) containing the constitutive CMV promoter and the renilla luciferase.
For preparing transfection reagent/DNA mixture, 1 μg pM-ROR gamma, 1 μg pGL4 5×UAS, 625 pg pRL-CMV and 6.25 μL FuGENE™ HD transfection reagent (Promega) were mixed in 0.25 mL OPTI-MEM™ (Life technologies) at room temperature. At the same time, Negative control DNA mixture was prepared by using 1 μg pM empty vector instead of pM-ROR gamma plasmid. After a fifteen minute incubation, 0.25 mL of transfection reagent/DNA mixture was added to 1,000,000 of HEK293T cells (ATCC) in 5 mL of OPTI-MEM™ containing 10% Charcoal Stripped Fetal Bovine Serum.
Transfected cells were seeded onto 384 well plate (10 μL/well) and the 7.5 nL of test compounds were added to the wells in 8 concentrations ranging from 3.5 nM to 10.5 μM. The compounds were dissolved in 100% DMSO and the final concentration of DMSO in the assay was 0.075%.
After 24 h of incubation at 37° C., 5% CO2 in a cell culture incubator, the Dual-Glo™ Luciferase Assay System was used to detect activity according to the manufacturer's instructions (Promega, Cat. No.: E2920).
Data was plotted and pIC50 values were calculated using the XLfit program (ID Business Solutions Ltd.).

Compound	IC50 [pM]
CC(C)=CCN(CC(=O)c1c(Cl)cncc1Cl)C(=O)c1cnn([C@H]2CC[C@H](C(=O)O)CC2)c1C(F)(F)F [Example 35, trans-4-(4-((2-(3,5-dichloropyridin-4-yl)-2-oxoethyl)(3-methylbut-2-en-1-yl)carbamoyl)-5-(trifluoromethyl)-1H-pyrazol-1-yl)cyclohexanecarboxyic acid]	112000
CC1(C)CCC(CN(CC(=O)c2c(Cl)cncc2Cl)C(=O)c2cnn([C@H]3CC[C@H](C(=O)O)CC3)c2C(F)(F)F)CC1 [Example 36, trans-4-(4-((2-(3,5-dichloropyridin-4-yl)-2-oxoethyl)((4,4-dimethylcyclohexyl)methyl)carbamoyl)-5-(trifluorornethyl)-1H-pyrazol-1-yl)cyclohexanecarboxylic acid]	117000
O=C(CN(CC1CCC2(CC1)CC2)C(=O)c1cnn([C@H]2CC[C@H](C(=O)O)CC2)c1C(F)(F)F)c1c(Cl)cncc1Cl [Example 37, trans-4-(4-((2-(3,5-dichloropyridin-4-yl)-2-oxoethyl)(spiro[2.5]octan-6-ylmethyl)carbamoyl)-5-(trifluoromethyl)-1H-pyrazol-1-yl)cyclohexanecarboxylic acid]	18600
O=C(CN(C[C@@H]1CCOC1)C(=O)c1cnn([C@H]2CC[C@H](C(=O)O)CC2)c1C(F)(F)F)c1c(Cl)cncc1Cl [Example 38, trans-4-(4-((2-(3,5-dichloropyridin-4-yl)-2-oxoethyl)(((S)-tetrahydrofuran-3-yl)methyl)carbamoyl)-5-(trifluoromethyl)-1H-pyrazol-1-yl)cyclohexanecarboxylic acid]	1.55e+06
O=C(CN(C[C@H]1CCOC1)C(=O)c1cnn([C@H]2CC[C@H](C(=O)O)CC2)c1C(F)(F)F)c1c(Cl)cncc1Cl [Example 39, trans-4-(4-((2-(3,5-dichloropyridin-4-yl)-2-oxoethyl)(((R)-tetrahydrofuran-3-yl)methyl)carbamoyl)-5-(trifluoromethyl)-1H-pyrazol-1-yl)cyclohexanecarboxylic acid]	> 1e+07
O=C(CN(Cc1ccccc1)C(=O)c1cnn([C@H]2CC[C@H](C(=O)O)CC2)c1C(F)(F)F)c1c(Cl)cncc1Cl [Example 40, trans-4-(4-(benzyl(2-(3,5-dichloropyridin-4-yl)-2-oxoethyl)carbamoyl)-5-(trifluoromethyl)-1H-pyrazol-1-yl)cyclohexanecarboxylic acid]	56200
O=C(CN(Cc1ccc(Cl)cc1)C(=O)c1cnn([C@H]2CC[C@H](C(=O)O)CC2)c1C(F)(F)F)c1c(Cl)cncc1Cl [Example 41, trans-4-(4-((4-chlorobenzyl)(2-(3,5-dichloropyridin-4-yl)-2-oxoethyl)carbamoyl)-5-(trifluoromethyl)-1H-pyrazol-1-yl)cyclohexanecarboxylic acid]	29500
O=C(CN(Cc1cc(F)cc(F)c1)C(=O)c1cnn([C@H]2CC[C@H](C(=O)O)CC2)c1C(F)(F)F)c1c(Cl)cncc1Cl [Example 42, trans-4-(4-((2-(3,5-dichloropyridin-4-yl)-2-oxoethyl)(3,5-difluorobenzyl)carbamoyl)-5-(trifluoromethyl)-1H-pyrazol-1-yl)cyclohexanecarboxylic acid]	44700
O=C(CN(Cc1cccc(F)c1F)C(=O)c1cnn([C@H]2CC[C@H](C(=O)O)CC2)c1C(F)(F)F)c1c(Cl)cncc1Cl [Example 43, trans-4-(4-((2-(3,5-dichloropyridin-4-yl)-2-oxoethyl)(2,3-difluorobenzyl)carbamoyl)-5-(trifluoromethyl)-1H-pyrazol-1-yl)cyclohexanecarboxylic acid]	33900
O=C(CN(Cc1ccc(F)c(F)c1)C(=O)c1cnn([C@H]2CC[C@H](C(=O)O)CC2)c1C(F)(F)F)c1c(Cl)cncc1Cl [Example 44, trans-4-(4-((2-(3,5-dichloropyridin-4-yl)-2-oxoethyl)(3,4-difluorobenzyl)carbamoyl)-5-(trifluorornethyl)-1H-pyrazol-1-yl)cyclohexanecarboxylic acid]	14800
O=C(CN(Cc1cc(F)ccc1F)C(=O)c1cnn([C@H]2CC[C@H](C(=O)O)CC2)c1C(F)(F)F)c1c(Cl)cncc1Cl [Example 45, trans-4-(4-((2-(3,5-dichloropyridin-4-yl)-2-oxoethyl)(2,5-difluorobenzyl)carbamoyl)-5-(trifluorornethyl)-1H-pyrazol-1-yl)cyclohexanecarboxylic acid]	58900
O=C(CN(Cc1ccco1)C(=O)c1cnn([C@H]2CC[C@H](C(=O)O)CC2)c1C(F)(F)F)c1c(Cl)cncc1Cl [Example 46, trans-4-(4-((2-(3,5-dichloropyridin-4-yl)-2-oxoethyl)(furan-2-ylmethyl)carbamoyl)-5-(trifluoromethyl)-1H-pyrazol-1-yl)cyclohexanecarboxylic acid]	398000
O=C(CN(Cc1ccoc1)C(=O)c1cnn([C@H]2CC[C@H](C(=O)O)CC2)c1C(F)(F)F)c1c(Cl)cncc1Cl [Example 47, trans-4-(4-((2-(3,5-dichloropyridin-4-yl)-2-oxoethyl)(furan-3-ylmethyl)carbamoyl)-5-(trifluoromethyl)-1H-pyrazol-1-yl)cyclohexanecarboxylic acid]	102000
O=C(CN(Cc1cnccn1)C(=O)c1cnn([C@H]2CC[C@H](C(=O)O)CC2)c1C(F)(F)F)c1c(Cl)cncc1Cl [Example 48, trans-4-(4-((2-(3,5-dichloropyridin-4-yl)-2-oxoethyl)(pyrazin-2-ylmethyl)carbarnoyl)-5-(trifluoromethyl)-1H-pyrazol-1-yl)cyclohexanecarboxylic acid]	> 1e+07
Cc1cncc(Cl)c1C(=O)CN(Cc1cc(F)cc(F)c1)C(=O)c1cnn([C@H]2CC[C@H](C(=O)O)CC2)c1C(F)(F)F [Example 49, trans-4-(4-((2-(3-chloro-5-methylpyridin-4-yl)-2-oxoethyl)(3,5-difluorobenzyl)carbamoyl)-5-(trifluoromethyl)-1H-pyrazol-1-yl)cyclohexanecarboxylic acid]	40700
O=C(CN(Cc1cc(F)cc(F)c1)C(=O)c1cnn([C@H]2CC[C@H](C(=O)O)CC2)c1C(F)(F)F)c1c(F)cncc1Cl [Example 50, trans-4-(4-((2-(3-chloro-5-fluoropyridin-4-yl)-2-oxoethyl)(3,5-difluorobenzyl)carbamoyl)-5-(trifluoromethyl)-1H-pyrazol-1-yl)cyclohexanecarboxylic acid]	70800
O=C(CN(Cc1cc(F)cc(F)c1)C(=O)c1cnn([C@H]2CC[C@H](C(=O)O)CC2)c1C(F)(F)F)c1c(F)cncc1F [Example 51, trans-4-(4-((3,5-difluorobenzyl)(2-(3,5-difluoropyridin-4-yl)-2-oxoethyl)carbamoyl)-5-(trifluoromethyl)-1H-pyrazol-1-yl)cyclohexanecarboxylic acid]	4.07e+06
Cc1cncc(C)c1C(=O)CN(Cc1cc(F)cc(F)c1)C(=O)c1cnn([C@H]2CC[C@H](C(=O)O)CC2)c1C(F)(F)F [Example 52]	245000
O=C(CN(Cc1cc(F)cc(F)c1)C(=O)c1cnn([C@H]2CC[C@H](C(=O)O)CC2)c1C(F)(F)F)c1c(Cl)cccc1Cl [Example 53, trans-4-(4-((2-(2,6-dichlorophenyl)-2-oxoethyl)(3,5-difluorobenzyl)carbamoyl)-5-(trifluoromethyl)-1H-pyrazol-1-yl)cyclohexanecarboxylic acid]	16200
COc1cccc(Cl)c1C(=O)CN(Cc1cc(F)cc(F)c1)C(=O)c1cnn([C@H]2CC[C@H](C(=O)O)CC2)c1C(F)(F)F [Example 54, trans-4-(4-((2-(2-chloro-6-methoxyphenyl)-2-oxoethyl)(3,5-difluorobenzyl)carbamoyl)-5-(trifluoromethyl)-1H-pyrazol-1-yl)cyclohexanecarboxylic acid]	70800
O=C(CN(Cc1cc(F)cc(F)c1)C(=O)c1cnn([C@H]2CC[C@H](C(=O)O)CC2)c1C(F)(F)F)c1c(Cl)cc(F)cc1Cl [Example 55, trans-4-(4-((2-(2,6-dichloro-4-fluorophenyl)-2-oxoethyl)(3,5-difluorobenzyl)carbamoyl)-5-(trifluoromethyl)-1H-pyrazol-1-yl)cyclohexanecarboxylic acid]	8910
